# Measurements reported in PMC4303209, “A novel phosphatidylinositol 3-kinase (PI3K) inhibitor directs a potent FOXO-dependent, p53-independent cell cycle arrest phenotype characterized by the differential induction of a subset of FOXO-regulated genes” (Breast Cancer Research : BCR, 2014).
# System: MCF-7 breast cancer cells
# Experiment: Microarray gene expression analysis (Agilent whole human genome 4 x 44K; compound vs DMSO, LIMMA log2 fold change)
# Assay type: cell-based
smiles,measurement,setting,value
Oc1cccc(-c2nc(N3CCOCC3)c3oc4ncccc4c3n2)c1 [PI-103],PRNP log2FC,,0.095
same,log2FC,,0.10
same,AARS log2FC,"Apoptosis genes, Gene 16",-0.158
same,ABL1 log2FC,"Apoptosis genes, Gene 25",-0.144
same,ABR log2FC,"Apoptosis genes, Gene 29",-0.279
same,ACTN4 log2FC,"Apoptosis genes, Gene 81",-0.244
same,ACTN1 log2FC,"Apoptosis genes, Gene 87",-0.457
same,ACTN2 log2FC,"Apoptosis genes, Gene 88",0.074
same,ACTN3 log2FC,"Apoptosis genes, Gene 89",-0.703
same,ACVR1 log2FC,"Apoptosis genes, Gene 90",0.552
same,ACVR1B log2FC,"Apoptosis genes, Gene 91",-0.214
same,ADA log2FC,"Apoptosis genes, Gene 100",-0.093
same,ADAM8 log2FC,"Apoptosis genes, Gene 101",-0.513
same,ADAR log2FC,"Apoptosis genes, Gene 103",-0.239
same,ADCYAP1 log2FC,"Apoptosis genes, Gene 116",0.042
same,ADD1 log2FC,"Apoptosis genes, Gene 118",-0.173
same,ADM log2FC,"Apoptosis genes, Gene 133",-0.875
same,ADORA1 log2FC,"Apoptosis genes, Gene 134",-1.870
same,ADORA2A log2FC,"Apoptosis genes, Gene 135",-0.109
same,ADRB1 log2FC,"Apoptosis genes, Gene 153",-0.133
same,AES log2FC,"Apoptosis genes, Gene 166",-0.056
same,AGT log2FC,"Apoptosis genes, Gene 183",-0.084
same,AHR log2FC,"Apoptosis genes, Gene 196",0.783
same,AKT1 log2FC,"Apoptosis genes, Gene 207",-0.579
same,AKT2 log2FC,"Apoptosis genes, Gene 208",-0.406
same,ALDH1A3 log2FC,"Apoptosis genes, Gene 220",-0.150
same,ALDOC log2FC,"Apoptosis genes, Gene 230",0.017
same,ALK log2FC,"Apoptosis genes, Gene 238",0.007
same,ALOX15B log2FC,"Apoptosis genes, Gene 247",-0.00234
same,ANGPT1 log2FC,"Apoptosis genes, Gene 284",-0.412
same,SLC25A4 log2FC,"Apoptosis genes, Gene 291",-0.414
same,SLC25A5 log2FC,"Apoptosis genes, Gene 292",-0.037
same,ANXA1 log2FC,"Apoptosis genes, Gene 301",0.803
same,ANXA4 log2FC,"Apoptosis genes, Gene 307",0.480
same,ANXA5 log2FC,"Apoptosis genes, Gene 308",0.167
same,APAF1 log2FC,"Apoptosis genes, Gene 317",0.575
same,NUDT2 log2FC,"Apoptosis genes, Gene 318",0.219
same,APBB2 log2FC,"Apoptosis genes, Gene 323",-0.180
same,APC log2FC,"Apoptosis genes, Gene 324",0.150
same,BIRC3 log2FC,"Apoptosis genes, Gene 330",-0.884
same,BIRC5 log2FC,"Apoptosis genes, Gene 332",0.037
same,APLP1 log2FC,"Apoptosis genes, Gene 333",-0.057
same,APOE log2FC,"Apoptosis genes, Gene 348",0.390
same,APP log2FC,"Apoptosis genes, Gene 351",0.331
same,FASLG log2FC,"Apoptosis genes, Gene 356",-0.231
same,AQP2 log2FC,"Apoptosis genes, Gene 359",-0.010
same,AR log2FC,"Apoptosis genes, Gene 367",0.287
same,ARAF log2FC,"Apoptosis genes, Gene 369",-0.336
same,ARF6 log2FC,"Apoptosis genes, Gene 382",-0.566
same,RHOB log2FC,"Apoptosis genes, Gene 388",-0.099
same,ARHGAP4 log2FC,"Apoptosis genes, Gene 393",0.173
same,ARHGDIA log2FC,"Apoptosis genes, Gene 396",-0.904
same,ARRB2 log2FC,"Apoptosis genes, Gene 409",0.444
same,ASCL1 log2FC,"Apoptosis genes, Gene 429",-0.053
same,ASNS log2FC,"Apoptosis genes, Gene 440",-0.385
same,ATF4 log2FC,"Apoptosis genes, Gene 468",-0.201
same,ATM log2FC,"Apoptosis genes, Gene 472",0.013
same,ATP2A1 log2FC,"Apoptosis genes, Gene 487",-0.025
same,AVP log2FC,"Apoptosis genes, Gene 551",-0.317
same,AXL log2FC,"Apoptosis genes, Gene 558",0.362
same,AZU1 log2FC,"Apoptosis genes, Gene 566",0.048
same,BAD log2FC,"Apoptosis genes, Gene 572",0.529
same,BAG1 log2FC,"Apoptosis genes, Gene 573",1.113
same,BAK1 log2FC,"Apoptosis genes, Gene 578",-0.383
same,BARD1 log2FC,"Apoptosis genes, Gene 580",0.336
same,BAX log2FC,"Apoptosis genes, Gene 581",-0.146
same,BCL2 log2FC,"Apoptosis genes, Gene 596",-0.342
same,BCL2A1 log2FC,"Apoptosis genes, Gene 597",-0.041
same,BCL2L1 log2FC,"Apoptosis genes, Gene 598",-0.919
same,BCL2L2 log2FC,"Apoptosis genes, Gene 599",0.313
same,BCL3 log2FC,"Apoptosis genes, Gene 602",-1.077
same,BCL6 log2FC,"Apoptosis genes, Gene 604",1.197
same,BDNF log2FC,"Apoptosis genes, Gene 627",-0.180
same,BID log2FC,"Apoptosis genes, Gene 637",-0.261
same,BIK log2FC,"Apoptosis genes, Gene 638",-0.571
same,BLM log2FC,"Apoptosis genes, Gene 641",0.071
same,BMP4 log2FC,"Apoptosis genes, Gene 652",0.224
same,BMP7 log2FC,"Apoptosis genes, Gene 655",-0.324
same,BMPR1B log2FC,"Apoptosis genes, Gene 658",-0.150
same,BMX log2FC,"Apoptosis genes, Gene 660",0.041
same,BNIP1 log2FC,"Apoptosis genes, Gene 662",0.320
same,BNIP2 log2FC,"Apoptosis genes, Gene 663",0.429
same,BNIP3 log2FC,"Apoptosis genes, Gene 664",0.757
same,BNIP3L log2FC,"Apoptosis genes, Gene 665",1.132
same,FOXL2 log2FC,"Apoptosis genes, Gene 668",-0.465
same,BRCA1 log2FC,"Apoptosis genes, Gene 672",0.741
same,BRAF log2FC,"Apoptosis genes, Gene 673",0.018
same,BRCA2 log2FC,"Apoptosis genes, Gene 675",0.100
same,BTC log2FC,"Apoptosis genes, Gene 685",0.236
same,BTG1 log2FC,"Apoptosis genes, Gene 694",1.197
same,BUB1 log2FC,"Apoptosis genes, Gene 699",0.591
same,BUB1B log2FC,"Apoptosis genes, Gene 701",0.146
same,TSPO log2FC,"Apoptosis genes, Gene 706",0.105
same,C5AR1 log2FC,"Apoptosis genes, Gene 728",0.079
same,CACNA1A log2FC,"Apoptosis genes, Gene 773",-0.069
same,CALR log2FC,"Apoptosis genes, Gene 811",-0.161
same,CAMK2B log2FC,"Apoptosis genes, Gene 816",0.010
same,CAST log2FC,"Apoptosis genes, Gene 831",0.459
same,CASP1 log2FC,"Apoptosis genes, Gene 834",0.025
same,CASP2 log2FC,"Apoptosis genes, Gene 835",-0.763
same,CASP3 log2FC,"Apoptosis genes, Gene 836",0.305
same,CASP4 log2FC,"Apoptosis genes, Gene 837",0.021
same,CASP5 log2FC,"Apoptosis genes, Gene 838",-0.191
same,CASP6 log2FC,"Apoptosis genes, Gene 839",0.478
same,CASP7 log2FC,"Apoptosis genes, Gene 840",-0.335
same,CASP8 log2FC,"Apoptosis genes, Gene 841",0.045
same,CASP9 log2FC,"Apoptosis genes, Gene 842",0.133
same,CASR log2FC,"Apoptosis genes, Gene 846",0.046
same,CAT log2FC,"Apoptosis genes, Gene 847",0.456
same,CAV1 log2FC,"Apoptosis genes, Gene 857",0.357
same,RUNX3 log2FC,"Apoptosis genes, Gene 864",-0.359
same,CBL log2FC,"Apoptosis genes, Gene 867",0.455
same,CBS log2FC,"Apoptosis genes, Gene 875",-0.393
same,KRIT1 log2FC,"Apoptosis genes, Gene 889",0.580
same,CCNG1 log2FC,"Apoptosis genes, Gene 900",0.460
same,CD2 log2FC,"Apoptosis genes, Gene 914",-0.198
same,CD3E log2FC,"Apoptosis genes, Gene 916",-0.245
same,CD3G log2FC,"Apoptosis genes, Gene 917",-0.217
same,CD5 log2FC,"Apoptosis genes, Gene 921",0.023
same,CD5L log2FC,"Apoptosis genes, Gene 922",-0.081
same,CD14 log2FC,"Apoptosis genes, Gene 929",-0.379
same,CD28 log2FC,"Apoptosis genes, Gene 940",0.036
same,CD40 log2FC,"Apoptosis genes, Gene 958",-0.612
same,CD44 log2FC,"Apoptosis genes, Gene 960",-0.262
same,CD59 log2FC,"Apoptosis genes, Gene 966",-0.006
same,CD74 log2FC,"Apoptosis genes, Gene 972",0.013
same,CDC34 log2FC,"Apoptosis genes, Gene 997",0.509
same,CDC42 log2FC,"Apoptosis genes, Gene 998",0.080
same,CDK4 log2FC,"Apoptosis genes, Gene 1019",0.170
same,CDKN1A log2FC,"Apoptosis genes, Gene 1026",-1.229
same,CDKN1B log2FC,"Apoptosis genes, Gene 1027",1.116
same,CDKN2A log2FC,"Apoptosis genes, Gene 1029",0.303
same,CDKN2D log2FC,"Apoptosis genes, Gene 1032",0.903
same,CEBPB log2FC,"Apoptosis genes, Gene 1051",-0.197
same,CFL1 log2FC,"Apoptosis genes, Gene 1072",-0.246
same,CTSC log2FC,"Apoptosis genes, Gene 1075",-0.333
same,CGB log2FC,"Apoptosis genes, Gene 1082",-0.180
same,CLU log2FC,"Apoptosis genes, Gene 1191",0.052
same,CLN3 log2FC,"Apoptosis genes, Gene 1201",-0.046
same,CCR7 log2FC,"Apoptosis genes, Gene 1236",0.113
same,PLK3 log2FC,"Apoptosis genes, Gene 1263",-1.591
same,CNR1 log2FC,"Apoptosis genes, Gene 1268",0.471
same,ATF2 log2FC,"Apoptosis genes, Gene 1386",0.878
same,CRH log2FC,"Apoptosis genes, Gene 1392",0.059
same,CRIP1 log2FC,"Apoptosis genes, Gene 1396",0.723
same,CRYAA log2FC,"Apoptosis genes, Gene 1409",-0.050
same,CRYAB log2FC,"Apoptosis genes, Gene 1410",-0.029
same,MAPK14 log2FC,"Apoptosis genes, Gene 1432",-0.303
same,CSE1L log2FC,"Apoptosis genes, Gene 1434",0.551
same,CSF2 log2FC,"Apoptosis genes, Gene 1437",-0.616
same,CSNK2A1 log2FC,"Apoptosis genes, Gene 1457",-0.647
same,CSNK2A2 log2FC,"Apoptosis genes, Gene 1459",0.329
same,CSTB log2FC,"Apoptosis genes, Gene 1476",0.261
same,NKX2-5 log2FC,"Apoptosis genes, Gene 1482",-0.572
same,CTGF log2FC,"Apoptosis genes, Gene 1490",-0.354
same,CTH log2FC,"Apoptosis genes, Gene 1491",0.722
